Literature values, collected in patent US20230364078A1, “METHOD OF PREPARING NANOPARTICLES COMPRISING POORLY WATER SOLUBLE DRUGS FOR TREATING HEPATITIS” (priority 2022, published 2023).

Experiments:
[1] = solvent ethanol
[2] = set-up: key: Class 1 has high solubility and permeability; Class 2 has low solubility but good permeability; Class 3 has high solubility but low permeability; Class 4 has low solubility and permeability; settings: water solubility and intestinal permeability
[3] = non-nanosized drug

solubility in water [3] | SMILES | solubility to ethanol [1] [mg/mL] | BCS class [2]
insoluble in water | COC(=O)N[C@H](C(=O)N1CCC[C@H]1c1ncc(-c2ccc(-c3ccc(-c4cnc([C@@H]5CCCN5C(=O)[C@@H](NC(=O)OC)C(C)C)[nH]4)cc3)cc2)[nH]1)C(C)C [Formula 1, Daclatasvir] | 148 | 2
very little soluble in water | C=C[C@@H]1C[C@]1(NC(=O)[C@@H]1C[C@@H](Oc2ncc(OC)c3ccc(Cl)cc23)CN1C(=O)[C@@H](NC(=O)OC(C)(C)C)C(C)(C)C)C(=O)NS(=O)(=O)C1CC1 [Formula 3, Asunaprevir] | 100 | 2
 | COC[C@H]1C[C@@H](c2nc(-c3ccc4c(c3)COc3cc5c(ccc6nc([C@@H]7CC[C@H](C)N7C(=O)[C@@H](NC(=O)OC)C(C)C)[nH]c65)cc3-4)c[nH]2)N(C(=O)[C@H](NC(=O)OC)c2ccccc2)C1 [Formula 4, Velpatasvir] | 30 | 4

SMILES | solubility in water [3] | solubility to ethanol [1] [mg/mL] | BCS class [2]
C=C[C@@H]1C[C@]1(NC(=O)[C@@H]1C[C@@H]2CN1C(=O)[C@H](C(C)(C)C)NC(=O)O[C@@H]1C[C@H]1CCCCCc1nc3ccc(OC)cc3nc1O2)C(=O)NS(=O)(=O)C1CC1 [Formula 2, Grazoprevir] | very little soluble in water | 15 | 2
